The values that follow come from patent US3970642A, “Process for the conversion of niddamycin to leucomycin A1, leucomycin A3, carbomycin B and other antibiotics and related 3-O-esters” (Abbott Laboratories, priority 1974, dated 1976).

SMILES strings stand for the structures. Converted amounts (≈) assume the structure as drawn. Bounds are passed on as bounds.

Holding throughout (assay type): cell-based
Experiment [1] deals with Streptococcus pyogenes C203. Description: Standard two-fold tube dilution test, activity against Streptococcus pyogenes C203. The conditions noted are these: brain-heart infusion broth, 24 hours at 37°C, read-out: Minimum Inhibitory Concentration. The protocol: (§1) Three nid damycin and two dihydroniddamycin compounds were tested for their activity against Streptococcus pyogenes C203, and Diplococcus pneumoniae 6301 and Mycoplasma pneumoniae FH.
(§2) A standard two-fold tube dilution test was used. The medium inoculum were varied with each culture.
In the test for activity against Streptococcus pyogenes C203, 5 ml. portions of brain-heart infusion broth were used with 0.1 ml. of 1:100 dilution culture. The test was incubated for 24 hours at 37°C.

A further experiment has as its system Mycoplasma pneumoniae FH. The experiment in a line: Standard two-fold tube dilution test, activity against Mycoplasma pneumoniae FH. Particulars: 144 h, PPLO broth, six days at 37°C, read-out: Minimum Inhibitory Concentration. The protocol:
as §1, §2
In the test for activity against Mycoplasma pneumoniae FH, 4.5 ml. portions of PPLO broth were used with 0.5 ml. of 1:100 dilution culture. The test was incubated for six days at 37°C.

Experiment [2] deals with Diplococcus pneumoniae 6301. Description: Standard two-fold tube dilution test, activity against Diplococcus pneumoniae 6301. The conditions noted are these: Streptococcus pneumoniae, brain-heart infusion broth and 20% horse serum, 24 hours at 37°C, read-out: Minimum Inhibitory Concentration. The protocol: as §1, §2
In the test for activity against Diplococcus pneumoniae 6301, 5 ml. portions of brain-heart infusion broth and 20% horse serum were used with 0.1 ml. of 1:100 dilution culture. The test was incubated for 24 hours at 37°C.

As to `COC(CC1CC(C)C(=O)C=CC=CCC(C)OC(=O)CC(OC(C)=O)C(OC)C1OC1OC(C)C(OC2CC(C)(O)C(OC(=O)CC(C)C)C(C)O2)C(N(C)C)C1O)OC` (stereo not drawn) [Compound 6B, 3-(O)-Acetylniddamycin dimethyl acetal], the MIC was found to be 12.5 µg/mL (≈ 14.3 µM) in experiment [1] and 25 µg/mL (≈ 28.7 µM) in the experiment with Mycoplasma pneumoniae FH.

`COC(CC1CC(C)C(O)C=CC=CCC(C)OC(=O)CC(O)C(OC)C1OC1OC(C)C(OC2CC(C)(O)C(OC(=O)CC(C)C)C(C)O2)C(N(C)C)C1O)OC` (stereo not drawn) [Compound 4, 9-Dihydroniddamycin B dimethyl acetal]: the MIC is 6.2 µg/mL (≈ 7.45 µM) in experiment [1] and 50 µg/mL (≈ 60.1 µM) in the experiment with Mycoplasma pneumoniae FH.

For `COC(CC1CC(C)C(=O)C=CC=CCC(C)OC(=O)CC(OC(C)=O)C(OC)C1OC1OC(C)C(OC2CC(C)(O)C(OC(=O)CC(C)C)C(C)O2)C(N(C)C)C1OC(C)=O)OC` (stereo not drawn) [Compound 3B, 2',3-Di-(O)-acetylniddamycin dimethyl acetal], the MIC (in experiment [1]; in the experiment on Mycoplasma pneumoniae FH; in experiment [2]) was above 100 µg/mL in each case.

In the case of `COC(CC1CC(C)C(=O)C=CC=CCC(C)OC(=O)CC(O)C(OC)C1OC1OC(C)C(OC2CC(C)(O)C(OC(=O)CC(C)C)C(C)O2)C(N(C)C)C1O)OC` (stereo not drawn) [Compound 2, Niddamycin dimethyl acetal], the MIC is 0.78 µg/mL (≈ 0.94 µM) in experiment [1], 25 µg/mL (≈ 30.1 µM) in the experiment with Mycoplasma pneumoniae FH and below 1.56 µg/mL in experiment [2].

Consider `COC(CC1CC(C)C(O)C=CC=CCC(C)OC(=O)CC(OC(C)=O)C(OC)C1OC1OC(C)C(OC2CC(C)(O)C(OC(=O)CC(C)C)C(C)O2)C(N(C)C)C1O)OC` (stereo not drawn) [Compound 8B, 3-(O)-Acetyl-9-dihydroniddamycin B dimethyl acetal], for which the MIC in experiment [1] stood at 25 µg/mL (≈ 28.6 µM); with Mycoplasma pneumoniae FH, 50 µg/mL (≈ 57.2 µM).
